Reference: patent US4221808A, “Novel antihypertensive agent” (Richardson-Merrell Inc., priority 1979, dated 1980)

Columns and labels:
[1] = target: T1, β-adrenergic receptor (Cavia porcellus, UniProt H0W3H1); test: β-Adrenergic receptor blocking activity in isolated guinea pig atria, isoproterenol as agonist; assay type: cell-based; details: isolated guinea pig atria; agonist isoproterenol; increase in rate; read-out: pA2 for β-adrenergic receptor blocking activity (converted)
T1 construct: isolated guinea pig atria preparation; from tissue; host or cells: guinea pig atria (isolated)
Protocol: (§1) β-Adrenergic receptor blocking activity was determined in vitro by performing cumulative dose-response experiments in the isolated guinea pig atria preparation using isoproterenol as the agonist. The response (increase in rate) of the guinea pig atria preparation in the presence of logarithmically increasing concentration of the compounds being tested were expressed as percent of the maximal attainable response. Relative antagonistic potency was expressed as a pA2 value, as defined above.

[2] = tested on: β-adrenergic receptor; test: as above; assay type: cell-based; details: from pA2 values, guinea pig atria (β) vs rabbit aortic strip (α)
Protocol: as §1

[3] = tested on: α-adrenergic receptor; test: α-Adrenergic receptor blocking activity in isolated rabbit aortic strip, norepinephrine as agonist; assay type: cell-based; details: contractile response
Protocol: α-Adrenergic receptor blocking activity was determined in vitro by performing cumulative dose-response experiments in the isolated rabbit aortic strip preparation using norepinephrine as the agonist. The contractile response of the rabbit strip preparation in the presence of logarithmically increasing concentrations of the compounds being tested were expressed as percent of the maximal attainable response.

[4] = tested on: spontaneously hypertensive rats (SHR); test: Antihypertensive activity in spontaneously hypertensive rats, systolic blood pressure by tail cuff; assay type: in vivo, rat; details: oral dose of 50 mg/kg
Protocol: Antihypertensive activity was determined in spontaneously hypertensive rats (SHR) of the Okomotor Aoki strain. Systolic blood pressure of the SHR was measured from the caudal artery by means of an indirect method utilizing a photocell transducer/tail cuff occluder system. Time response relationships were determined for each compound following an oral dose of 50 mg/kg. Data were expressed as mm Hg decrease from control values. Statistical significance was determined using a 2 tailed "t" test comparing drug treatment response values to those obtained from concurrent vehicle treated animals.

T1 sequence (H0W3H1 1-470): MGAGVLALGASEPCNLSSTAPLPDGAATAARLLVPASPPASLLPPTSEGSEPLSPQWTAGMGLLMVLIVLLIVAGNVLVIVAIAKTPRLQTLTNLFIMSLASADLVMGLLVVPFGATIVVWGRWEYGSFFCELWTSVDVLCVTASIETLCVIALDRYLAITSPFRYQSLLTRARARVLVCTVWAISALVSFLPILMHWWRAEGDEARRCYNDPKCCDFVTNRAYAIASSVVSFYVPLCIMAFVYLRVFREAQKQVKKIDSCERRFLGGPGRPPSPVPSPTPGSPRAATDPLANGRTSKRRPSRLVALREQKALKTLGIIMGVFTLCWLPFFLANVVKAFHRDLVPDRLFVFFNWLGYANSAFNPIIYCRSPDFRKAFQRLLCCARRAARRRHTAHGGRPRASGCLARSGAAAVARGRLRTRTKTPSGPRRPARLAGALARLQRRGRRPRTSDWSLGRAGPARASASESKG

SMILES: COc1ccc(C(O)CNC(C)CCc2ccc3c(c2)OCO3)cc1C(N)=O.Cl (stereo not shown) [compound 1, 5-[2-[[3-(1,3-Benzodioxol-5-yl)-1-methylpropyl]amino]-1-hydroxyethyl]-2-methoxybenzamide hydrochloride]
- Kb [1]: 3.47 nM
- ratio of β/α blocking activity [2]: > 2089
- pA2 for α-adrenergic receptor blocking activity [3]: 5.14
- decrease in systolic blood pressure from control values ([4]; after 1 hour): 42 mm Hg
- decrease in systolic blood pressure from control values ([4]; after 4 hours): 67 mm Hg

SMILES: CC(CCc1ccc2c(c1)OCO2)NCC(O)c1ccc(O)c(C(N)=O)c1.Cl (stereo not shown) [compound 2, 5-[2-[[3-(1,3-benzodioxol-5-yl)-1-methylpropyl]amino]-1-hydroxyethyl]-2-hydroxybenzamide hydrochloride]
- Kb [1]: 15.1 nM
- ratio of β/α blocking activity [2]: 55
- pA2 for α-adrenergic receptor blocking activity [3]: 6.08
- decrease in systolic blood pressure from control values ([4]; after 1 hour): 71 mm Hg
- decrease in systolic blood pressure from control values ([4]; after 4 hours): 64 mm Hg

SMILES: Cc1ccc(N(CC2=NCCN2)c2cccc(O)c2)cc1 [phentolamine]
- Kb [1]: > 10000 nM
- decrease in systolic blood pressure from control values ([4]; after 1 hour): 62 mm Hg
- decrease in systolic blood pressure from control values ([4]; after 4 hours): 60 mm Hg

SMILES: CC(C)NCC(O)COc1cccc2ccccc12 (stereo not shown) [propranolol]
- pA2 for α-adrenergic receptor blocking activity [3]: < 5
- decrease in systolic blood pressure from control values ([4]; after 1 hour): did not lower blood pressure significantly
- decrease in systolic blood pressure from control values ([4]; after 4 hours): did not lower blood pressure significantly
